# Test results from ChEMBL document CHEMBL4350978, “Phytochemical and pharmacological attributes of piperine: A bioactive ingredient of black pepper” (2019).
# Experiments:
# Type in all cases: functional
# Proteus vulgaris [1] = assay: Antibacterial activity against Proteus vulgaris assessed as diameter of zone of inhibition at 15 ug/disc by disc diffusion method; settings: read-out: DIZ
# Klebsiella pneumoniae [2] = assay: Antibacterial activity against Klebsiella pneumoniae assessed as diameter of zone of inhibition at 15 ug/disc by disc diffusion method; settings: read-out: DIZ
# Staphylococcus aureus [3] = assay: Antibacterial activity against Staphylococcus aureus assessed as diameter of zone of inhibition at 15 ug/disc by disc diffusion method; settings: read-out: DIZ
# Escherichia coli [4] = assay: Antibacterial activity against Escherichia coli assessed as diameter of zone of inhibition at 15 ug/disc by disc diffusion method; settings: read-out: DIZ
# Pseudomonas aeruginosa [5] = assay: Antibacterial activity against Pseudomonas aeruginosa assessed as diameter of zone of inhibition at 15 ug/disc by disc diffusion method; settings: read-out: DIZ
# Staphylococcus aureus [6] = assay: Antibacterial activity against Staphylococcus aureus by serial dilution method
# Proteus vulgaris [7] = assay: Antibacterial activity against Proteus vulgaris assessed as diameter of zone of inhibition at […] by disc diffusion method
# Pseudomonas aeruginosa [8] = assay: Antibacterial activity against Pseudomonas aeruginosa assessed as diameter of zone of inhibition at […] by disc diffusion method
# Proteus vulgaris [9] = assay: Antibacterial activity against Proteus vulgaris by serial dilution method
# Escherichia coli [10] = assay: Antibacterial activity against Escherichia coli by serial dilution method
# Klebsiella pneumoniae [11] = assay: Antibacterial activity against Klebsiella pneumoniae assessed as diameter of zone of inhibition at […] by disc diffusion method
# Escherichia coli [12] = assay: Antibacterial activity against Escherichia coli assessed as diameter of zone of inhibition at […] by disc diffusion method
# Klebsiella pneumoniae [13] = assay: Antibacterial activity against Klebsiella pneumoniae by serial dilution method
# Candida albicans [14] = assay: Antifungal activity against Candida albicans by serial dilution method
# Staphylococcus aureus [15] = assay: Antibacterial activity against Staphylococcus aureus assessed as diameter of zone of inhibition at […] by disc diffusion method
# Candida albicans [16] = assay: Antifungal activity against Candida albicans assessed as diameter of zone of inhibition at […] by disc diffusion method
# Escherichia coli [17] = assay: Antibacterial activity against Escherichia coli assessed as diameter of zone of inhibition at 10 ug/disc by disc diffusion method; settings: read-out: DIZ
# Klebsiella pneumoniae [18] = assay: Antibacterial activity against Klebsiella pneumoniae assessed as diameter of zone of inhibition at 10 ug/disc by disc diffusion method; settings: read-out: DIZ
# Staphylococcus aureus [19] = assay: Antibacterial activity against Staphylococcus aureus assessed as diameter of zone of inhibition at 10 ug/disc by disc diffusion method; settings: read-out: DIZ
# Proteus vulgaris [20] = assay: Antibacterial activity against Proteus vulgaris assessed as diameter of zone of inhibition at 10 ug/disc by disc diffusion method; settings: read-out: DIZ
# Pseudomonas aeruginosa [21] = assay: Antibacterial activity against Pseudomonas aeruginosa assessed as diameter of zone of inhibition at 10 ug/disc by disc diffusion method; settings: read-out: DIZ
smiles,measurement,setting,value
CC[C@H]1OC(=O)[C@H](C)[C@@H](O[C@H]2C[C@@](C)(OC)[C@@H](O)[C@H](C)O2)[C@H](C)[C@@H](O[C@@H]2O[C@H](C)C[C@H](N(C)C)[C@H]2O)[C@](C)(O)C[C@@H](C)C(=O)[C@H](C)[C@@H](O)[C@]1(C)O [ERYTHROMYCIN],zone of inhibition at 15 µg/disc,Proteus vulgaris [1],6 mm
same,zone of inhibition at 15 µg/disc,Klebsiella pneumoniae [2],10 mm
same,zone of inhibition at 15 µg/disc,Staphylococcus aureus [3],24 mm
same,zone of inhibition at 15 µg/disc,Escherichia coli [4],15 mm
same,zone of inhibition at 15 µg/disc,Pseudomonas aeruginosa [5],18 mm
O=C(/C=C/C=C/c1ccc2c(c1)OCO2)N1CCCCC1 [PIPERINE],MIC,Staphylococcus aureus [6],50 mg/mL
same,diameter of the inhibition zone (DIZ),Proteus vulgaris [7],17 mm
same,diameter of the inhibition zone (DIZ),Pseudomonas aeruginosa [8],8 mm
same,MIC,Proteus vulgaris [9],12.5 mg/mL
same,MIC,Escherichia coli [10],6.25 mg/mL
same,diameter of the inhibition zone (DIZ),Klebsiella pneumoniae [11],15 mm
same,diameter of the inhibition zone (DIZ),Escherichia coli [12],20 mm
same,MIC,Klebsiella pneumoniae [13],25 mg/mL
same,MIC,Candida albicans [14],3.12 mg/mL
same,diameter of the inhibition zone (DIZ),Staphylococcus aureus [15],12 mm
same,diameter of the inhibition zone (DIZ),Candida albicans [16],23 mm
CN[C@@H]1[C@H](O[C@H]2[C@H](O[C@H]3[C@H](O)[C@@H](O)[C@H](N=C(N)N)[C@@H](O)[C@@H]3N=C(N)N)O[C@@H](C)[C@]2(O)C=O)O[C@@H](CO)[C@H](O)[C@H]1O [STREPTOMYCIN],zone of inhibition at 10 µg/disc,Escherichia coli [17],13.5 mm
same,zone of inhibition at 10 µg/disc,Klebsiella pneumoniae [18],20 mm
same,zone of inhibition at 10 µg/disc,Staphylococcus aureus [19],23 mm
same,zone of inhibition at 10 µg/disc,Proteus vulgaris [20],10 mm
same,zone of inhibition at 10 µg/disc,Pseudomonas aeruginosa [21],22 mm
